Experimental data reported in US4649153A, “5,6-Dihydro-4H-cyclopenta(b)thiophene-6-carboxylic acids, preparation processes and medicines containing them” (Lipha, Lyonnaise Industrielle Pharmaceutique, priority 1984, dated 1987).
Entries after “also recorded” stand apart in the source; their conditions may differ. Where two headings read alike, the source gives them in different places.

Legend:
carrageenan edema = assay: Carrageenan edema test (Winter et al.), rat back paw, anti-inflammatory activity; format: in vivo, rats (male); conditions: for ED30: Rattus norvegicus, read-out: Carrageenan edema ED 30
Method: Edema of a back paw was caused in male rats by subplantar injection of a 1% suspension of carrageenan in apyrogenic physiological solute. Measurement of the edema by plethysmography occurred 3 hours later. The products studied were administered orally 1 hour before the carrageenan injection. The protection conferred by the treatment was determined by calculation of ED 30 (dose moderating the edema 30% in relation to untreated animals).

UV erythema = assay: Protection from UV erythema (Winter et al.), early inflammation; format: in vivo, guinea pigs; conditions: Cavia porcellus, read-out: Protection from UV ED 50
Method: White guinea pigs having their backs freshly depilated were radiated individually by exposure to the radiation of a UV lamp placed 25 cm above the animal's back for 1 min 30 sec. The zone to be radiated was delimited by a covering pierced with circular holes wrapping each animal. The erythema was visually marked 2 hours after exposure to radiation. The guinea pigs were treated orally with the test products 1 hour after exposure to UV.

[1] = Acute oral toxicity (LD50), mortality recorded 2 weeks later; conditions: mouse, in vivo, Table III, Swiss mice
Method: Lethal doses 50 (LD50) were determined by oral administration in Swiss mice. Mortality was recorded 2 weeks later.

[2] = Table II, oral, 1 hour before carrageenan, rats, dose moderating edema 30%
[3] = Table II, oral, 1 hour after UV exposure, guinea pigs, dose reducing erythema 50%
[4] = Table I, oral, 1 hour before carrageenan, rats, edema measured 3 hours later, dose moderating edema 30%
[5] = Table I, oral, 1 hour after UV exposure, guinea pigs, erythema marked 2 hours after exposure, dose reducing erythema 50%

Compound	ED30 (carrageenan edema; [2]) [mg/kg]	ED50 (UV erythema; [3]) [mg/kg]	ED30 (carrageenan edema; [4]) [mg/kg]	ED50 (UV erythema; [5]) [mg/kg]	further results
O=C(c1ccccc1)c1cc2c(s1)CCC2C(=O)O (stereo not shown) [2-Benzoyl-5,6-dihydro-4H cyclopenta[b]thiophene-4-carboxylic, reference compound]	> 30	> 50			
CC(C)Cc1cc2c(s1)CCC2C(=O)O (stereo not shown) [2-Isobutyl-5,6-dihydro-4H cyclopenta[b]thiophene-4-carboxylic, reference compound]	> 30	> 50			
CC(C)Cc1sc2c(c1C(=O)c1ccccc1)C(C(=O)O)CC2 (stereo not shown) [3-Benzoyl-2-isobutyl-5,6-dihydro-4Hcyclopenta[b]thio-phene-4-carboxylic acid, reference compound]	> 30	> 50			
Cc1sc2c(c1C(=O)c1ccccc1)C(C(=O)O)CC2 (stereo not shown) [3-benzoyl-2-methyl-5,6-dihydro-4H-cyclopenta[b]thiophene-4-carboxylic acid, reference compound]	> 30	> 50			
Cc1sc2c(c1C(=O)c1ccccc1)CCC2C(=O)O (stereo not shown) [Example 7, 3-Benzoyl-2-methyl-5,6-dihydro-4H-cyclopenta[b]thiophene-6-carboxylic acid]		0.4	0.7	0.4	LD50 at 336 h [1]: 275 mg/kg; Carrageenan edema ED 30 (carrageenan edema; [2]): 0.7 mg/kg; activity compared with Indomethacin and with isomeric 4-carboxylic acids (in words) (carrageenan edema; carrageenan edema, UV protection and Randall and Selitto tests): greater than that of Indomethacin; also recorded: considerably greater than that of 5,6-dihydro-4H-cyclopenta[b]thiophene-4-carboxylic isomeric acids
Cc1sc2c(c1C(=O)c1cccs1)CCC2C(=O)O (stereo not shown) [Example 10, 2-Methyl 3-(2-thenoyl)-5,6-dihydro-4H-cyclopenta[b]thiophene-6-carboxylic acid]			3	0.2	LD50 at 336 h [1]: 275 mg/kg
Cc1sc2c(c1C(=O)c1ccc(F)cc1)CCC2C(=O)O (stereo not shown) [Example 21, 3-(4-Fluorobenzoyl)-2-methyl-5,6-dihydro-4H-cyclopenta[b]thiophene-6-carboxylic acid]			2.4	0.4	
Cc1sc2c(c1C(=O)c1ccc(N(C)C)cc1)CCC2C(=O)O (stereo not shown) [Example 27, 3-(4-Dimethylaminobenzoyl)-2-methyl-5,6-dihydro-4H-cyclopenta[b]thiophene-6-carboxylic acid]			1.3	0.6	
CC(C)Cc1sc2c(c1C(=O)c1ccccc1)CCC2C(=O)O (stereo not shown) [Example 32, 3-Benzoyl-2-isobutyl-5,6-dihydro-4H-cyclopenta[b]thiophene-6-carboxylic acid]			> 50	> 50	
CCc1sc2c(c1C(=O)c1ccccc1)CCC2C(=O)O (stereo not shown) [Example 38, 3-Benzoyl-2-ethyl-5,6-dihydro-4H-cyclopenta[b]thiophene-6-carboxylic acid]			6	2	
COc1ccc2c(c1)c(CC(=O)O)c(C)n2C(=O)c1ccc(Cl)cc1 [INDOMETHACIN, 1-(4-chlorobenzoyl)-5-methoxy-2-methyl-3-indolylacetic acid, reference compound]					LD50 at 336 h [1]: 25 mg/kg; ED30 (carrageenan edema; po): 5 mg/kg; ED50 (UV erythema; po): 4.5 mg/kg
